Tested on: MV-4-11 cells
Experiment: Gene expression microarray analysis (Affymetrix PrimeView) and GSEA
Format: cell-based, human
Set-up: RFU PODN (11730768_x_at) / Fold change /veh PODN (11730768_x_at) / RFU LINC00158 (11744669_a_at) / Fold change /veh LINC00158 (11744669_a_at) / RFU DUSP10 (11751237_a_at) / Fold change /veh DUSP10 (11751237_a_at) / RFU ID3 (11757404_x_at) / Fold change /veh ID3 (11757404_x_at) / RFU PLEKHG5 (11737974_s_at) / Fold change /veh PLEKHG5 (11737974_s_at) / RFU LRRC4B (11730491_at) / Fold change /veh LRRC4B (11730491_at) / RFU GIMAP4 (11747438_a_at) / Fold change /veh GIMAP4 (11747438_a_at) / RFU KRT8 (11758183_x_at) / Fold change /veh KRT8 (11758183_x_at) / RFU CNN1 (11734310_a_at) / Fold change /veh CNN1 (11734310_a_at) / RFU VPS37D (11726825_at) / Fold change /veh VPS37D (11726825_at) / RFU C10orf10 (11716522_x_at) / Fold change /veh C10orf10 (11716522_x_at) / RFU KIR2DL2 /// KIR2DL4 /// KIR2DL5A /// KIR2DL5B /// KIR2DS1 /// KIR2DS2 /// KIR2DS3 /// KIR2DS4 /// KIR3DL3 /// KIR3DL3 /// KIR3DS1 (11738374_at) / Fold change /veh KIR2DL2 /// KIR2DL4 /// KIR2DL5A /// KIR2DL5B /// KIR2DS1 /// KIR2DS2 /// KIR2DS3 /// KIR2DS4 /// KIR3DL3 /// KIR3DL3 /// KIR3DS1 (11738374_at) / RFU C1QL1 (11718748_at) / Fold change /veh C1QL1 (11718748_at) / RFU TMPRSS4 (11747572_a_at) / Fold change /veh TMPRSS4 (11747572_a_at) / RFU HAMP (11756126_x_at) / Fold change /veh HAMP (11756126_x_at) / RFU RNFT2 (11725882_a_at) / Fold change /veh RNFT2 (11725882_a_at) / RFU NR4A2 (11747474_a_at) / Fold change /veh NR4A2 (11747474_a_at) / RFU ABCC12 (11746883_a_at) / Fold change /veh ABCC12 (11746883_a_at) / RFU TMEM136 (11760407_x_at) / Fold change /veh TMEM136 (11760407_x_at) / RFU CLDN22 /// WWC2 (11732394_at) / Fold change /veh CLDN22 /// WWC2 (11732394_at) / RFU HLA-DPB1 (11760878_x_at) / Fold change /veh HLA-DPB1 (11760878_x_at) / RFU SPINT1 (11716480_a_at) / Fold change /veh SPINT1 (11716480_a_at) / RFU GAP43 (11754022_s_at) / Fold change /veh GAP43 (11754022_s_at) / RFU A4GNT (11735810_at) / Fold change /veh A4GNT (11735810_at) / RFU PRB3 (11715151_x_at) / Fold change /veh PRB3 (11715151_x_at) / RFU TUBB4B (11761932_at) / Fold change /veh TUBB4B (11761932_at) / RFU CAPN14 (11732068_a_at) / Fold change /veh CAPN14 (11732068_a_at) / RFU TMCC2 (11721928_a_at) / Fold change /veh TMCC2 (11721928_a_at) / RFU IRGQ (11745062_a_at) / Fold change /veh IRGQ (11745062_a_at) / RFU FAM174B (11720279_a_at) / Fold change /veh FAM174B (11720279_a_at) / RFU TMPRSS4 (11748680_a_at) / Fold change /veh TMPRSS4 (11748680_a_at) / RFU FAM212B (11763350_a_at) / Fold change /veh FAM212B (11763350_a_at) / RFU PLEKHG5 (11743358_a_at) / Fold change /veh PLEKHG5 (11743358_a_at) / RFU ZSCAN30 (11745921_a_at) / Fold change /veh ZSCAN30 (11745921_a_at) / RFU CMKLR1 (11741424_a_at) / Fold change /veh CMKLR1 (11741424_a_at) / RFU LOC101060620 /// MAPK8IP1 (11723275_at) / Fold change /veh LOC101060620 /// MAPK8IP1 (11723275_at) / RFU SPTSSB (11747773_x_at) / Fold change /veh SPTSSB (11747773_x_at) / RFU PRSS12 (11739890_at) / Fold change /veh PRSS12 (11739890_at) / RFU BIN1 (11741810_x_at) / Fold change /veh BIN1 (11741810_x_at) / RFU WNT11 (11732464_a_at) / Fold change /veh WNT11 (11732464_a_at) / RFU C10orf10 (11716521_a_at) / Fold change /veh C10orf10 (11716521_a_at) / RFU C5orf56 (11738089_at) / Fold change /veh C5orf56 (11738089_at) / RFU CYB561 (11721691_x_at) / Fold change /veh CYB561 (11721691_x_at) / RFU ANKRD19P (11752326_a_at) / Fold change /veh ANKRD19P (11752326_a_at) / RFU OR2T12 /// OR2T33 /// OR2T8 (11738714_s_at) / Fold change /veh OR2T12 /// OR2T33 /// OR2T8 (11738714_s_at) / RFU VCAN (11748164_a_at) / Fold change /veh VCAN (11748164_a_at) / RFU JSRP1 (11732532_at) / Fold change /veh JSRP1 (11732532_at) / RFU KRTAP10-11 (11738290_x_at) / Fold change /veh KRTAP10-11 (11738290_x_at) / RFU MYO3A (11730013_a_at) / Fold change /veh MYO3A (11730013_a_at) / RFU EBF3 (11725865_a_at) / Fold change /veh EBF3 (11725865_a_at) / RFU CAMK2N1 (11719241_x_at) / Fold change /veh CAMK2N1 (11719241_x_at) / RFU C5orf56 (11738088_a_at) / Fold change /veh C5orf56 (11738088_a_at) / RFU OLFML3 (11715873_a_at) / Fold change /veh OLFML3 (11715873_a_at) / RFU LOC100653217 /// NTM (11731650_a_at) / Fold change /veh LOC100653217 /// NTM (11731650_a_at) / RFU MAPK11 (11762145_a_at) / Fold change /veh MAPK11 (11762145_a_at) / RFU FIZ1 (11724087_x_at) / Fold change /veh FIZ1 (11724087_x_at) / RFU OASL (11726364_x_at) / Fold change /veh OASL (11726364_x_at) / RFU SOX15 (11748057_x_at) / Fold change /veh SOX15 (11748057_x_at) / RFU CD79A (11719716_a_at) / Fold change /veh CD79A (11719716_a_at) / RFU HIST1H1D (11736915_at) / Fold change /veh HIST1H1D (11736915_at) / RFU CASKIN2 (11723855_a_at) / Fold change /veh CASKIN2 (11723855_a_at) / RFU LOC730098 (11760151_x_at) / Fold change /veh LOC730098 (11760151_x_at) / RFU OR4N2 (11742367_at) / Fold change /veh OR4N2 (11742367_at) / RFU PRRT2 (11749266_a_at) / Fold change /veh PRRT2 (11749266_a_at) / RFU SNX32 (11753110_a_at) / Fold change /veh SNX32 (11753110_a_at) / RFU CDHR5 (11726645_a_at) / Fold change /veh CDHR5 (11726645_a_at) / RFU RCAN1 (11760418_a_at) / Fold change /veh RCAN1 (11760418_a_at) / RFU FAM167A (11723789_a_at) / Fold change /veh FAM167A (11723789_a_at) / RFU FAM26E (11764081_at) / Fold change /veh FAM26E (11764081_at) / RFU ISYNA1 (11749810_s_at) / Fold change /veh ISYNA1 (11749810_s_at) / RFU ACY1 (11761880_at) / Fold change /veh ACY1 (11761880_at) / RFU 11764098_at / Fold change /veh 11764098_at / RFU SAMD14 (11745864_x_at) / Fold change /veh SAMD14 (11745864_x_at) / RFU NPB (11741838_a_at) / Fold change /veh NPB (11741838_a_at) / RFU TMPRSS6 (11731388_a_at) / Fold change /veh TMPRSS6 (11731388_a_at) / RFU KRTAP10-2 (11738614_at) / Fold change /veh KRTAP10-2 (11738614_at) / RFU ARHGAP8 /// PRR5-ARHGAP8 (11727945_x_at) / Fold change /veh ARHGAP8 /// PRR5-ARHGAP8 (11727945_x_at) / RFU KRTAP5-7 /// NADSYN1 (11734609_at) / Fold change /veh KRTAP5-7 /// NADSYN1 (11734609_at) / RFU RASL12 (11751679_a_at) / Fold change /veh RASL12 (11751679_a_at) / RFU CDKN2B (11736163_a_at) / Fold change /veh CDKN2B (11736163_a_at) / RFU PRF1 (11729649_at) / Fold change /veh PRF1 (11729649_at) / RFU, ZNF638 /// ZNF638-IT1 / Fold change vs veh, ZNF638 /// ZNF638-IT1 / RFU, PANK3 / Fold change vs veh, PANK3 / RFU, SH3YL1 / Fold change vs veh, SH3YL1 / RFU, ZEB2 / Fold change vs veh, ZEB2 / RFU, NRIP1 / Fold change vs veh, NRIP1 / RFU, PTTG1IP / Fold change vs veh, PTTG1IP / RFU, CAPN2 / Fold change vs veh, CAPN2 / RFU, MED14 / Fold change vs veh, MED14 / RFU, SNORA58 / Fold change vs veh, SNORA58 / RFU, C1orf63 / Fold change vs veh, C1orf63 / RFU, LRRFIP1 / Fold change vs veh, LRRFIP1 / RFU, NDUFAF7 / Fold change vs veh, NDUFAF7 / RFU, SLC12A2 / Fold change vs veh, SLC12A2 / RFU, IBTK / Fold change vs veh, IBTK / RFU, ESF1 / Fold change vs veh, ESF1 / Fold change vs veh, TMEM50B / RFU, TAOK1 / Fold change vs veh, TAOK1 / RFU, ACBD3 / Fold change vs veh, ACBD3 / RFU, TMA16 / Fold change vs veh, TMA16 / RFU, RWDD3 / Fold change vs veh, RWDD3 / RFU, BCAT1 / Fold change vs veh, BCAT1 / RFU, EDEM3 / Fold change vs veh, EDEM3 / RFU, TMEM33 / Fold change vs veh, TMEM33 / RFU, WDR75 / Fold change vs veh, WDR75 / RFU, AHCTF1 / Fold change vs veh, AHCTF1 / RFU, TFRC / Fold change vs veh, TFRC / RFU, ZDHHC17 / Fold change vs veh, ZDHHC17 / RFU, NOM1 / Fold change vs veh, NOM1 / RFU, ARL8B / Fold change vs veh, ARL8B / RFU, ZBTB11 / Fold change vs veh, ZBTB11 / RFU, TAMM41 / Fold change vs veh, TAMM41 / RFU, KIAA1704 /// LOC100996395 / Fold change vs veh, KIAA1704 /// LOC100996395 / RFU, ING1 / Fold change vs veh, ING1 / RFU, TRMT61B / Fold change vs veh, TRMT61B / RFU, FUBP3 / Fold change vs veh, FUBP3 / RFU, TP53 / Fold change vs veh, TP53 / RFU, TNKS2 / Fold change vs veh, TNKS2 / RFU, ZFP14 / Fold change vs veh, ZFP14 / RFU, ACTR2 / Fold change vs veh, ACTR2 / RFU, PPP3R1 / Fold change vs veh, PPP3R1 / RFU, PIK3R1 / Fold change vs veh, PIK3R1 / RFU, HNRNPA1 / Fold change vs veh, HNRNPA1 / RFU, RNF170 / Fold change vs veh, RNF170 / RFU, ZNF28 / Fold change vs veh, ZNF28 / RFU, RNGTT / Fold change vs veh, RNGTT / RFU, OGT / Fold change vs veh, OGT / RFU, BRD1 / Fold change vs veh, BRD1 / RFU, MARS / Fold change vs veh, MARS / RFU, ZNF655 / Fold change vs veh, ZNF655 / RFU, FAHD1 / Fold change vs veh, FAHD1 / RFU, BDP1 / Fold change vs veh, BDP1 / RFU, LRRCC1 / Fold change vs veh, LRRCC1 / RFU, ARID1A / Fold change vs veh, ARID1A / RFU, ZNF146 / Fold change vs veh, ZNF146 / RFU, ZNF330 / Fold change vs veh, ZNF330 / RFU, GPN3 / Fold change vs veh, GPN3 / RFU, C9orf123 / Fold change vs veh, C9orf123 / RFU, N4BP2L2 / Fold change vs veh, N4BP2L2 / RFU, ARFIP1 / Fold change vs veh, ARFIP1 / RFU, FAM179B / Fold change vs veh, FAM179B / RFU, BCL10 / Fold change vs veh, BCL10 / RFU, UHRF1BP1L / Fold change vs veh, UHRF1BP1L / RFU, BET1 / Fold change vs veh, BET1 / RFU, CNOT2 / Fold change vs veh, CNOT2 / RFU, ZNF268 / Fold change vs veh, ZNF268 / Fold change vs veh, ZNF507 / RFU, DGCR2 / Fold change vs veh, DGCR2 / RFU, WDSUB1 / Fold change vs veh, WDSUB1 / Fold change vs veh, HSP90B1 /// MIR3652 / RFU, ADSS / Fold change vs veh, ADSS / RFU, GK / Fold change vs veh, GK / RFU, ZNF148 / Fold change vs veh, ZNF148 / RFU, TAF9 / Fold change vs veh, TAF9 / RFU, SLC1A5 / Fold change vs veh, SLC1A5 / RFU, SLMO2 / Fold change vs veh, SLMO2 / RFU, ABCC4 / Fold change vs veh, ABCC4 / RFU, LOC101060439 /// RAP1B / Fold change vs veh, LOC101060439 /// RAP1B / RFU, RFX7 / Fold change vs veh, RFX7 / RFU, GTPBP10 / Fold change vs veh, GTPBP10 / RFU, CNEP1R1 / Fold change vs veh, CNEP1R1 / RFU, BIVM-ERCC5 /// ERCC5 / Fold change vs veh, BIVM-ERCC5 /// ERCC5 / RFU, ILF3 / Fold change vs veh, ILF3 / RFU 11762660_at / Fold change /veh 11762660_at / RFU VCAN (11757783_s_at) / Fold change /veh VCAN (11757783_s_at) / RFU DDX43 (11728927_at) / Fold change /veh DDX43 (11728927_at) / RFU KRT8 (11758188_x_at) / Fold change /veh KRT8 (11758188_x_at) / RFU NKD1 (11759106_at) / Fold change /veh NKD1 (11759106_at) / RFU SRD5A1 (11742802_a_at) / Fold change /veh SRD5A1 (11742802_a_at) / RFU TPSAB1 /// TPSB2 (11721975_s_at) / Fold change /veh TPSAB1 /// TPSB2 (11721975_s_at) / RFU GSTM3 (11746129_a_at) / Fold change /veh GSTM3 (11746129_a_at) / RFU IL23R (11737362_x_at) / Fold change /veh IL23R (11737362_x_at) / RFU TMEM51 (11727254_a_at) / Fold change /veh TMEM51 (11727254_a_at) / RFU PIWIL2 (11732686_x_at) / Fold change /veh PIWIL2 (11732686_x_at) / RFU ORM1 (11744905_x_at) / Fold change /veh ORM1 (11744905_x_at) / RFU CCDC152 (11743942_at) / Fold change /veh CCDC152 (11743942_at) / RFU ECM1 (11717891_a_at) / Fold change /veh ECM1 (11717891_a_at) / RFU IL23R (11748794_a_at) / Fold change /veh IL23R (11748794_a_at) / RFU TNFAIP8L3 (11732012_x_at) / Fold change /veh TNFAIP8L3 (11732012_x_at) / RFU MBOAT4 (11741988_at) / Fold change /veh MBOAT4 (11741988_at) / RFU 11764193_at / Fold change /veh 11764193_at / RFU TMEM53 (11763286_at) / Fold change /veh TMEM53 (11763286_at) / RFU MAGEB2 (11727129_at) / Fold change /veh MAGEB2 (11727129_at) / RFU TMEM200A (11744735_a_at) / Fold change /veh TMEM200A (11744735_a_at) / RFU CCDC152 (11751479_a_at) / Fold change /veh CCDC152 (11751479_a_at) / RFU FAM211A (11726209_a_at) / Fold change /veh FAM211A (11726209_a_at) / RFU RGS16 (11746705_a_at) / Fold change /veh RGS16 (11746705_a_at) / RFU VCAN (11755009_s_at) / Fold change /veh VCAN (11755009_s_at) / RFU RHOB (11743442_s_at) / Fold change /veh RHOB (11743442_s_at) / RFU RGS16 (11720943_a_at) / Fold change /veh RGS16 (11720943_a_at) / RFU RGS16 (11720944_at) / Fold change /veh RGS16 (11720944_at) / RFU, VPS4B / Fold change vs veh, VPS4B / RFU, CREB1 / Fold change vs veh, CREB1 / RFU, DNAJC13 / Fold change vs veh, DNAJC13 / RFU, GNAQ / Fold change vs veh, GNAQ / RFU, CDK5R1 / Fold change vs veh, CDK5R1 / RFU, ZRANB3 / Fold change vs veh, ZRANB3 / RFU, CUL4A / Fold change vs veh, CUL4A / RFU, CCNY / Fold change vs veh, CCNY / RFU, UFL1 / Fold change vs veh, UFL1 / RFU, COG3 / Fold change vs veh, COG3 / RFU, DIAPH2 / Fold change vs veh, DIAPH2 / RFU, SKA2 / Fold change vs veh, SKA2 / RFU, AFF3 / Fold change vs veh, AFF3 / RFU, LMF1 / Fold change vs veh, LMF1 / RFU, IPO11 / Fold change vs veh, IPO11 / RFU, DFFB / Fold change vs veh, DFFB / RFU, FOXP1 / Fold change vs veh, FOXP1 / RFU, CARD8 / Fold change vs veh, CARD8 / RFU, STRN3 / Fold change vs veh, STRN3 / RFU, ADK / Fold change vs veh, ADK / RFU, RASSF2 / Fold change vs veh, RASSF2 / RFU, WIPF1 / Fold change vs veh, WIPF1 / RFU, LARP1B / Fold change vs veh, LARP1B / RFU, RASA1 / Fold change vs veh, RASA1 / RFU, RB1 / Fold change vs veh, RB1 / RFU, PPFIA1 / Fold change vs veh, PPFIA1 / RFU, MAT2A / Fold change vs veh, MAT2A / RFU, CCT5 / Fold change vs veh, CCT5 / RFU, WDR92 / Fold change vs veh, WDR92 / RFU, CUX1 / Fold change vs veh, CUX1 / RFU, TTC7A / Fold change vs veh, TTC7A / RFU, TMEM135 / Fold change vs veh, TMEM135 / RFU, DEPTOR / Fold change vs veh, DEPTOR / RFU, CPM / Fold change vs veh, CPM / RFU, DNAJB6 / Fold change vs veh, DNAJB6 / RFU, CACNA2D3 / Fold change vs veh, CACNA2D3 / RFU, DTX4 / Fold change vs veh, DTX4 / RFU, TFCP2 / Fold change vs veh, TFCP2 / RFU, GMCL1 /// GMCL1P1 / Fold change vs veh, GMCL1 /// GMCL1P1 / RFU, AEBP2 / Fold change vs veh, AEBP2 / RFU, SNHG1 /// SNORD22 /// SNORD25 /// SNORD26 /// SNORD27 /// SNORD28 /// SNORD29 /// SNORD31 / Fold change vs veh, SNHG1 /// SNORD22 /// SNORD25 /// SNORD26 /// SNORD27 /// SNORD28 /// SNORD29 /// SNORD31 / Fold change (Aza/veh), C12orf56 (ProbeSet 11735607_a_at) / Fold change (ACY-1035/veh), C12orf56 (ProbeSet 11735607_a_at) / Fold change (Aza/veh), FGFR1OP (ProbeSet 11751329_s_at) / Fold change (ACY-1035/veh), FGFR1OP (ProbeSet 11751329_s_at) / Fold change (Aza/veh), VPS36 (ProbeSet 11739960_a_at) / Fold change (ACY-1035/veh), VPS36 (ProbeSet 11739960_a_at) / RFU SYPL1 (11715823_x_at) / Fold change /veh SYPL1 (11715823_x_at) / RFU IGFBP7 (11715501_s_at) / Fold change /veh IGFBP7 (11715501_s_at) / RFU REEP3 (11722064_at) / Fold change /veh REEP3 (11722064_at) / RFU IGLL1 (11728026_x_at) / Fold change /veh IGLL1 (11728026_x_at): dose or concentration left out as unconfirmed
Details: MV-4-11 cells, 48 hours

Compound: Nc1ncn([C@@H]2O[C@H](CO)[C@@H](O)[C@H]2O)c(=O)n1 [azacitidine]
- RFU HLA-DPB1 (11760878_x_at): 15.97 RFU
